PubChem BioAssay AID1189 (EPA DSSTox, 2008)
Active and inactive are the calls of the source.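 The calls were made as follows: active = a tumor-causing dose value with its tumor site reported for any sex and species group of a rodent or other animal cancer study; inconclusive = only studies judged inadequate by the national testing program; inactive = tested in at least one study, none positive.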 Numbered stars: 1 amine (or outer) side, 2 acyl side, 3 side chain; on linkers, the order of the positions; unused ones are H or OH. Bridge positions count the residues as written; N and C are the ends. Square brackets hold non-standard residues; d marks the D form. Peptide text beside a SMILES is read from it. I, II: the chains in the order shown. Actinocin(1to9) = Cc1c2oc3c(C)ccc(C(=O)[*:2])c3nc-2c(C(=O)[*:1])c(N)c1=O; d(aIle) = CC[C@H](C)[C@@H](N)C(=O)O; NMeV = CN[C@H](C(=O)O)C(C)C; Sar = CNCC(=O)O

Assay: DSSTox (CPDBAS) Carcinogenic Potency Database Summary SingleCellCall Results
Conditions: animal chronic carcinogenicity bioassays, CPDB summary call
In short: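 Literature-derived summary: each substance receives an overall carcinogenic/non-carcinogenic category drawn from long-term bioassays in rats, mice, hamsters, dogs or primates, using the most positive sex-species experiment and minimal evidence criteria.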

Row | SMILES | outcome
1 | C/C=C(/C)C(=O)O[C@H]1CCN2CC=C(COC(=O)[C@](O)([C@H](C)OC)C(C)(C)O)[C@H]12 | active
2 | Cc1cc(N=Nc2c(O)ccc3ccccc23)c(S(=O)(=O)O)cc1Cl | active; inactive
3 | Nc1ccc(Cc2ccc(N)cc2)cc1 | active; inactive
4 | O=NN1CC=CCO1 | active
5 | Nc1ccccc1C(=O)OC/C=C/c1ccccc1 | active
6 | CC1CN(N=O)CC(C)N1N=O (stereo not given) | active
7 | CC1=C(C(=O)OC(C)C)C(c2cccc([N+](=O)[O-])c2)C(C(=O)OC2CN(C(c3ccccc3)c3ccccc3)C2)=C(N)N1 (stereo not given) | inactive; active
8 | COC(=O)NN | inactive; active
9 | Nc1nnc(-c2ccc([N+](=O)[O-])o2)o1 | active
10 | Cc1cccc2cccnc12 | inactive
11 | Cc1noc(NS(=O)(=O)c2ccc(N)cc2)c1C | inactive
12 | S=C1NCCN1 | active; inactive
13 | O=NO | active
14 | O=C1C=C(N2CC2)C(=O)C(N2CC2)=C1N1CC1 | active
15 | N#CN=C(N)N | inactive; active
16 | C=CC=O | inactive
17 | CN1C(C(=O)Nc2ccccn2)=C(O)c2ccccc2S1(=O)=O | inactive
18 | Clc1ccccc1 | active; inactive
19 | C[C@]12CC[C@H]3C(=CCc4cc(OS(=O)(=O)O)ccc43)[C@@H]1CCC2=O | inactive; active
20 | ClCc1cccnc1 | active
21 | CCOC(=O)[C@]1(c2ccccc2)CCC=C[C@H]1N(C)C | inactive
22 | CCCN(CCC)c1c([N+](=O)[O-])cc(C(F)(F)F)cc1[N+](=O)[O-] | active

Row | SMILES | outcome
23 | FC(F)Cl | inactive
24 | C/[N+]([O-])=N/CO[C@@H]1O[C@H](CO)[C@@H](O)[C@H](O)[C@H]1O | active
25 | CSCCC(N)C(=O)O (stereo not given) | inactive
26 | CC1(C)[C@@H](OC2O[C@H](C(=O)O)[C@@H](O)[C@H](O)[C@H]2O[C@H]2O[C@H](C(=O)O)[C@@H](O)[C@H](O)[C@H]2O)CC[C@]2(C)[C@H]3C(=O)C=C4[C@@H]5C[C@@](C)(C(=O)O)CC[C@]5(C)CC[C@@]4(C)[C@]3(C)CC[C@@H]12 (stereo not given in full) | inactive
27 | COc1ccc2c(c1)c(CC(=O)O)c(C)n2C(=O)c1ccc(Cl)cc1 | active; inactive
28 | ClC1=C(Cl)[C@]2(Cl)[C@@H]3[C@H]4C=CC(C4)[C@@H]3C1(Cl)C2(Cl)Cl | active
29 | O=C1C2CC=CCC2C(=O)N1SC(Cl)(Cl)Cl (stereo not given) | active
30 | O=C(N[C@H](CO)[C@H](O)c1ccc([N+](=O)[O-])cc1)C(Cl)Cl | inactive
31 | OCCN(CCO)CCO | active; inactive
32 | CCN(CC)C(=S)[S-].CCN(CC)C(=S)[S-].[Cd+2] | inactive
33 | CC[C@H](C)[C@H]1NC(=O)[C@@H](NC(=O)c2c3nc4c(C(=O)N[C@@H]5C(=O)N[C@H](C(C)C)C(=O)N6CCC[C@H]6C(=O)N(C)CC(=O)N(C)[C@@H](C(C)C)C(=O)O[C@@H]5C)ccc(C)c4oc-3c(C)c(=O)c2N)[C@@H](C)OC(=O)[C@H](C(C)C)N(C)C(=O)CN(C)C(=O)[C@@H]2CCCN2C1=O (I: T[d(aIle)]P[Sar][NMeV] / II: T[dV]P[Sar][NMeV]; ester I:1-I:C, II:1-II:C; linker I:N-II:N via Actinocin(1to9)) | inactive
34 | CC(C)NCC(O)COc1cccc2ccccc12 (stereo not given) | inactive
35 | CC(=O)N[C@@H](CC(C)C)C(=O)N[C@@H](CC(C)C)C(=O)N[C@H](C=O)CCCN=C(N)N | active; inactive
36 | COC(=O)[C@H]1[C@H]2C[C@@H]3c4[nH]c5cc(OC)ccc5c4CCN3C[C@H]2C[C@@H](OC(=O)c2cc(OC)c(OC)c(OC)c2)[C@@H]1OC | active
37 | O=C1CCCCCN1 | inactive
38 | ClC1=C(Cl)C2(Cl)C3C(Cl)C=CC3C1(Cl)C2(Cl)Cl (stereo not given) | active
39 | CC[C@H](OC(C)=O)C(C[C@H](C)N(C)C)(c1ccccc1)c1ccccc1 | active
40 | CC1(C)S[C@@H]2[C@H](NC(=O)[C@H](N)c3ccccc3)C(=O)N2[C@H]1C(=O)O | inactive
41 | CC(=O)NNC(C)=O | inactive
42 | O=[N+]([O-])c1c(Cl)c(Cl)c(Cl)c(Cl)c1Cl | active
43 | FC(F)=C(F)F | active; inactive
44 | CNC(=O)O/N=C/C(C)(C)SC | inactive

Row | SMILES | outcome
45 | C=CCc1ccc(O)c(OC)c1 | inactive
46 | CCN(CC)CCOc1ccc(/C(=C(\Cl)c2ccccc2)c2ccccc2)cc1 | inactive; active
47 | Cc1cc(=O)[nH]c(=S)[nH]1 | active
48 | COc1nn(CSP(=S)(OC)OC)c(=O)s1 | active
49 | CN(C)N | active
50 | c1ccc2c(c1)cc1ccc3cccc4ccc2c1c34 | active; inactive
51 | C/C=C/c1ccc2c(c1)OCO2 | inactive
52 | CCN(CC)C(=S)SSC(=S)N(CC)CC | inactive; active
53 | C=CCOc1ccccc1OCC(O)CNC(C)C (stereo not given) | inactive
54 | CN(C)C(=S)SC(=S)N(C)C | inactive
55 | C=CCc1ccc(OC)cc1 | active
56 | Cc1ccccc1 | active
57 | c1ccc(NNc2ccccc2)cc1 | active
58 | COc1cc2c(c3oc(=O)c4c(c13)CC[C@H]4O)[C@@H]1C=CO[C@H]1O2 | active
59 | CC(C)(C)NCC(O)c1cc(O)cc(O)c1 (stereo not given) | active
60 | CN(N=O)C(N)=O | active; inactive
61 | O=[N+]([O-])c1cccc2cccnc12 | active; inactive
62 | CCCCCCCC/C=C\CCCCCCCC(=O)O | inactive
63 | CC(C)Oc1ccccc1OC(=O)N(C)N=O | active
64 | O=NN1CCCN(N=O)C1 | active
65 | O=C(O)[C@@H]1[C@H](C(=O)O)[C@@]2(Cl)C(Cl)=C(Cl)[C@]1(Cl)C2(Cl)Cl | active
66 | O=S(=O)(O)CCS | inactive; active

Row | SMILES | outcome
67 | CC(=O)Nc1ccc2c(c1)Cc1cc(NC(C)=O)ccc1-2 | inactive
68 | Cc1ccc2c(c1N)C(=O)c1ccccc1C2=O | active
69 | ClCC(Cl)CCl | active; inactive
70 | CC(C)(C)O | active; inactive
71 | C/C=C1/C[C@@H](C)[C@](O)(CO)C(=O)OCC2=CCN3CC[C@@H](OC1=O)[C@@H]23 | active
72 | Cn1cc(C(=O)[C@@H]2CCc3nc[nH]c3C2)c2ccccc21 | inactive; active
73 | O=CCCCC=O | inactive; active
74 | CCN=[N+](C)[O-] | active
75 | O=C1CN=C(c2ccccc2)c2cc(Cl)ccc2N1CC1CC1 | inactive
76 | CC(=O)Nc1ccc2c(c1)C(=O)c1ccccc1-2 | active
77 | Cn1c(=O)c2[nH]cnc2n(C)c1=O | inactive; active
78 | O=C1c2ccccc2-c2ccc3c4c(ccc1c24)-c1ccccc1C3=O | active; inactive
79 | CCCCCCCCCC[N+](C)(C)[O-] | inactive
80 | OC[P+](CO)(CO)CO | inactive; active
81 | CC(O)CCl (stereo not given) | inactive; active
82 | Oc1ccc2c(c1)OCO2 | active; inactive
83 | FC(F)(F)CCl | active; inactive
84 | c1ccc2[nH]c(-c3cscn3)nc2c1 | inactive
85 | COc1cc(OC)c2c3c(c(=O)oc2c1)CCC3 | inactive
